This note sets out measurements from ChEMBL document CHEMBL4495565, “Cytopathic SARS-Cov2 screening on VERO-E6 cells in a large repurposing effort” (2020).

The test system of one data set is SARS-CoV-2. In words: microbe, parasite or virus in culture. The data set is classed as functional, organism-based, Chlorocebus sabaeus, Vero C1008.
A further data set can be described thus: in vitro. The conditions noted are these: chlorocebus sabaeus, VERO-E6 cells (Vero C1008), uninfected, CC50.
[1] abbreviates: Severe acute respiratory syndrome coronavirus 2, Vero C1008, 48 h.

The structures appear in SMILES notation. Several values for one entry are separate records, joined by “and”; a condition that tells them apart may be missing. Equal values may be shown once. Where a name gives a salt, the structure may show the parent alone. Square brackets hold non-standard residues; d marks the D form. Peptide text beside a SMILES is read from it. * marks the point of attachment. dPhe(4-NHCONH2) = NC(=O)Nc1ccc(C[C@@H](N)C(=O)O)cc1; Dihydroorotyl(S) = O=C1C[C@@H](C(=O)*)NC(=O)N1; dPhe(4-Cl) = N[C@H](Cc1ccc(Cl)cc1)C(=O)O; Phe(4-NH2) = Nc1ccc(C[C@H](N)C(=O)O)cc1; d2Nal = N[C@H](Cc1ccc2ccccc2c1)C(=O)O; Lys(iPr) = CC(C)NCCCC[C@H](N)C(=O)O; d3Pal = N[C@H](Cc1cccnc1)C(=O)O

A word on the IC50: it is the concentration that inhibits the measured activity by half. Lower therefore signals greater potency in that assay. The CC50 is the concentration giving 50% cytotoxicity. Low values mean harm at low concentration, high ones better tolerance by the cells. In the case of `CCN(CC)CCCCNc1ncc2cc(-c3c(Cl)cccc3Cl)c(NC(=O)NC(C)(C)C)nc2n1`, the IC50 in the data set with SARS-CoV-2 (setting [1]) was more than 33 µM. The compound also displayed a CC50 at 48 h in the data set “in vitro” of 12.7 µM.
In the case of `Nc1c(C(=O)NCc2ccco2)c2nc3ccccc3nc2n1CCN1CCCCC1`, half-maximal inhibition in the data set with SARS-CoV-2 (setting [1]) (IC50) required 31.2 µM. The CC50 at 48 h in the data set “in vitro” was more than 33 µM.
For `Cc1cc([N+](=O)[O-])ccc1NS(=O)(=O)c1cc(Cl)ccc1Cl`, the IC50 in the data set on SARS-CoV-2 (setting [1]) was more than 33 µM. This compound had a CC50 at 48 h in the data set “in vitro” of 16.6 µM.
Taken in the same sequence, the figures for `C=CC(=O)N1CCC(Oc2cc3c(Nc4ccc(Cl)c(Cl)c4F)ncnc3cc2OC)CC1` [POZIOTINIB] were more than 33 µM and 11.5 µM.
In the case of `CC(=O)[C@]1(N)Cc2c(O)c3c(c(O)c2[C@@H](O[C@H]2C[C@H](O)[C@H](O)CO2)C1)C(=O)c1ccccc1C3=O` [AMRUBICIN], half-maximal inhibition in the data set on SARS-CoV-2 (setting [1]) (IC50) required 0.33 µM. In addition, the CC50 at 48 h in “in vitro” was more than 33 µM.
For `CC(C)C(=O)OCC(=O)[C@@]12O[C@H](C3CCCCC3)O[C@@H]1C[C@H]1[C@@H]3CCC4=CC(=O)C=C[C@]4(C)[C@H]3[C@@H](O)C[C@@]12C` [CICLESONIDE], the IC50 in the data set on SARS-CoV-2 (setting [1]) was more than 33 µM.
Compound `CC[n+]1c(-c2ccccc2)c2cc(N)ccc2c2ccc(N)cc21` [HOMIDIUM] yielded a 50% inhibitory concentration (IC50) in the data set on SARS-CoV-2 (setting [1]) of more than 33 µM. Also, in the data set “in vitro”, the CC50 at 48 h stood at 2.04 µM.
`Cc1c(O)cccc1C(=O)NC(CSc1ccccc1)C(O)CN1CC2CCCCC2CC1C(=O)NC(C)(C)C` (stereo not given): 14.3 µM corresponded to half-maximal inhibition in the data set with SARS-CoV-2 (setting [1]) (IC50). In the data set “in vitro”, this compound registered a CC50 at 48 h of more than 33 µM.
Taken in the same sequence, the figures for `CN1[C@@H]2CC[C@H]1C[C@@H](OC(=O)c1cc(Cl)cc(Cl)c1)C2` [BEMESETRON] were more than 33 µM and 0.02 µM.
For `CC(=O)N[C@H](Cc1ccc2ccccc2c1)C(=O)N[C@H](Cc1ccc(Cl)cc1)C(=O)N[C@H](Cc1cccnc1)C(=O)N[C@@H](CO)C(=O)N[C@@H](Cc1ccc(NC(=O)[C@@H]2CC(=O)NC(=O)N2)cc1)C(=O)N[C@H](Cc1ccc(NC(N)=O)cc1)C(=O)N[C@@H](CC(C)C)C(=O)N[C@@H](CCCCNC(C)C)C(=O)N1CCC[C@H]1C(=O)N[C@H](C)C(N)=O` [DEGARELIX] (Ac-[d2Nal][dPhe(4-Cl)][d3Pal]S[Phe(4-NH2)](Dihydroorotyl(S))[dPhe(4-NHCONH2)]L[Lys(iPr)]P[dA]-NH2) the same measures were 20.7 µM and more than 33 µM.
In turn, `CC(C)C[C@H](NC(=O)CNC(=O)c1cc(Cl)ccc1Cl)B(O)O` [IXAZOMIB] yielded an IC50 in the data set with SARS-CoV-2 (setting [1]) of more than 33 µM. In addition, in “in vitro”, the CC50 at 48 h was determined as 2.7 µM.
Taken in the same sequence, the figures for `CC(C)c1cccc2c(-c3ccccc3)cc(-c3ccc(-c4ccc(C(=O)O)cc4)[nH]3)nc12` were more than 33 µM and more than 33 µM.
In the case of `COc1c(C)c2c(c(O)c1C/C=C(\C)CCC(=O)O)C(=O)OC2` [MYCOPHENOLIC ACID], in the data set with SARS-CoV-2 (vero c1008), the IC50 was 3.43 µM and 11.1 µM and > 33 µM.
Consider `C/C=C/C[C@@H](C)C(=O)[C@H]1C(=O)N[C@@H](C(C)C)C(=O)N(C)CC(=O)N(C)[C@@H](CC(C)C)C(=O)N[C@@H](C(C)C)C(=O)N(C)[C@@H](CC(C)C)C(=O)N[C@@H](C)C(=O)N[C@H](C)C(=O)N(C)[C@@H](CC(C)C)C(=O)N(C)[C@@H](CC(C)C)C(=O)N(C)[C@@H](C(C)C)C(=O)N1C` [VALSPODAR], for which, in the data set with SARS-CoV-2 (setting [1]), the IC50 is more than 33 µM. The compound further came in with a CC50 at 48 h in “in vitro” of 13.4 µM.
`CC1=NN(c2ccc(C)c(C)c2)C(=O)/C1=N\Nc1cccc(-c2cccc(C(=O)O)c2)c1O` [ELTROMBOPAG] returned an IC50 in the data set on SARS-CoV-2 (setting [1]) of more than 33 µM. The CC50 at 48 h in “in vitro” was determined as 3.26 µM.
Consider `O=C(c1ccc(OCCN2CCCCC2)cc1)c1c(-c2ccc(O)cc2)sc2cc(O)ccc12` [RALOXIFENE HYDROCHLORIDE], for which, in the data set with SARS-CoV-2 (setting [1]), the IC50 is 15.4 µM. In the data set “in vitro”, this compound returned a CC50 at 48 h of more than 33 µM.
The compound `CN(Cc1cnc2nc(N)nc(N)c2n1)c1ccc(C(=O)N[C@@H](CCC(=O)O)C(=O)O)cc1` [METHOTREXATE] had an IC50 in the data set with SARS-CoV-2 (setting [1]) of 0.05 µM. Moreover, in “in vitro”, the CC50 at 48 h was determined as 0.05 µM.
In turn, `O=C(O)c1ccc(N2C(=O)/C(=C/c3ccc(-c4ccc([N+](=O)[O-])cc4)o3)C=C2c2ccccc2)cc1` gave an IC50 in the data set on SARS-CoV-2 (setting [1]) of more than 33 µM. In “in vitro”, the CC50 at 48 h worked out at 12.8 µM.
For `CCCCn1c(NC(=O)c2cccs2)c(C#N)c2nc3ccccc3nc21`, in the data set with SARS-CoV-2 (setting [1]), the midpoint of inhibition, the IC50, lay at 19.7 µM.
Consider `CN1CCN(C2CCN(C(=O)Nc3cc(Oc4ccc(NC(=O)C5(C(=O)Nc6ccc(F)cc6)CC5)c(F)c4)ccn3)CC2)CC1` [GOLVATINIB], for which 5.89 µM corresponded to half-maximal inhibition with SARS-CoV-2 (setting [1]) (IC50). In “in vitro”, this compound gave a CC50 at 48 h of more than 33 µM.
For `Nc1c[nH]c(=O)c2cc(-c3ccccc3)sc12` the same measures were 5.26 µM and more than 33 µM.
As to `CCc1c(-c2ccc3[nH]ncc3c2)cnc(N)c1-c1ccc(O)cc1`, in the data set with SARS-CoV-2 (setting [1]), the IC50 was more than 33 µM. Also, the CC50 at 48 h in the data set “in vitro” is more than 33 µM.
In the case of `CCN1CCN(Cc2ccc(-c3cc4c(N[C@H](C)c5ccccc5)ncnc4[nH]3)cc2)CC1` [AEE-788], the IC50 with SARS-CoV-2 (setting [1]) came out at 3.94 µM. This compound showed a CC50 at 48 h in “in vitro” of more than 33 µM.
For `C/C(=C\c1ccc(C(=O)O)cc1)c1ccc2c(c1)C(C)(C)CCC2(C)C` the same measures were more than 33 µM and 4.07 µM.
For `CC(C)n1cnc2c(NCCc3ccc(O)cc3)nc(-c3csc4ccccc34)nc21`, in the data set with SARS-CoV-2 (setting [1]), the IC50 was more than 33 µM. Further, the CC50 at 48 h in “in vitro” came to 12.6 µM.
On to `Cc1cc(C)c2c(c1)[C@@H](N(Cc1cc(C(F)(F)F)cc(C(F)(F)F)c1)c1nnn(C)n1)CCCN2C[C@H]1CC[C@H](C(=O)O)CC1` [EVACETRAPIB], for which, in the data set with SARS-CoV-2 (setting [1]), the IC50 was more than 33 µM. Also, the CC50 at 48 h in the data set “in vitro” is more than 33 µM.
Consider `CC[C@@]1([C@H]2O[C@H]([C@H]3O[C@@](O)(CO)[C@H](C)C[C@@H]3C)C[C@H]2C)CC[C@H]([C@@]2(C)CC[C@]3(C[C@H](O)[C@@H](C)[C@@H]([C@H](C)[C@H](OC)[C@@H](C)C(=O)O)O3)O2)O1` [MONENSIN SODIUM], for which the IC50 with SARS-CoV-2 (setting [1]) is 3.18 µM.
As for `C[C@@H](OC[C@@]1(c2ccccc2)CC[C@]2(CCC(=O)N2)CN1)c1cc(C(F)(F)F)cc(C(F)(F)F)c1` [ROLAPITANT], it took 19.6 µM to reach half-maximal inhibition with SARS-CoV-2 (setting [1]) (IC50). Also, the CC50 at 48 h in “in vitro” is more than 33 µM.
As for `CCN(CC)c1ccc2cc(-c3nc4ccccc4[nH]3)c(=O)oc2c1`, the IC50 with SARS-CoV-2 (setting [1]) was found to be 0.36 µM. Besides, the CC50 at 48 h in “in vitro” was more than 33 µM.
Take `Cc1cc(N2C[C@@H](C)N[C@@H](C)C2)ncc1-c1ccc(-c2nc3c(ccn3C)c(=O)[nH]2)cc1`: the IC50 with SARS-CoV-2 (setting [1]) was more than 33 µM. In “in vitro”, this compound yielded a CC50 at 48 h of 7.14 µM.
In the data set with SARS-CoV-2 (setting [1]), `CC(C)(C)c1cc(/C=C(\C#N)C(N)=S)cc(C(C)(C)C)c1O` [TYRPHOSTIN AG 879] had an IC50 of more than 33 µM. In the data set “in vitro”, this compound yielded a CC50 at 48 h of more than 33 µM.
As to `Cc1ncc(NC(=O)c2ccc(CN3CCN(C)CC3)c(C(F)(F)F)c2)cc1Nc1nccc(-c2cccnc2)n1` [FLUMATINIB], the IC50 in the data set with SARS-CoV-2 (setting [1]) is more than 33 µM. Besides, the CC50 at 48 h in “in vitro” is more than 33 µM.
In turn, `Cc1c(C(=O)c2cccc3ccccc23)c2cccc3c2n1[C@H](CN1CCOCC1)CO3` [WIN-552122] gave an IC50 in the data set with SARS-CoV-2 (setting [1]) of more than 33 µM. In the data set “in vitro”, the CC50 at 48 h came out at 7.06 µM.
For the compound `Nc1cc2c3ccccc3ccc2c2ccccc12`, in the data set with SARS-CoV-2 (setting [1]), half-maximal inhibition (IC50) required 11.6 µM. This compound also had a CC50 at 48 h in “in vitro” of more than 33 µM.
In the data set on SARS-CoV-2 (setting [1]), `O=C1OC2(c3ccc(O)cc3Oc3cc(O)ccc32)c2ccccc21` [FLUORESCEIN] registered an IC50 of 0.67 µM. Moreover, the CC50 at 48 h in “in vitro” is more than 33 µM.
`O=C1C(=Cc2cccnc2)C(=O)c2ccccc21` had an IC50 with SARS-CoV-2 (setting [1]) of more than 33 µM.
As to `CCCCCCCCCCCCCCOc1ccc(C(=O)O)o1` [TOFA], the IC50 in the data set on SARS-CoV-2 (setting [1]) turned out to be 4.04 µM. This compound also yielded a CC50 at 48 h in the data set “in vitro” of more than 33 µM.
In the data set with SARS-CoV-2 (setting [1]), `CCN1CCC(n2cc(CNc3cc(Cl)c4ncc(C#N)c(Nc5ccc(F)c(Cl)c5)c4c3)nn2)CC1` gave an IC50 of 16.6 µM.
